Where two headings read alike, the source gives them in different places.
Columns and labels:
Format in all cases: biochemical
[1] = biological target: T1, mouse granzyme A (Mus musculus, UniProt P11032); assay: Inactivation rate of mouse granzyme A; details: Table VII; pH 7.5, 25° C; [I] 0.4 to 45 μM; read-out: kobs/[I]
T1 construct: mouse cytotoxic lymphocyte granzyme A; endogenous in cells; host or cells: mouse cytotoxic lymphocytes
T1 sequence (P11032 29-260): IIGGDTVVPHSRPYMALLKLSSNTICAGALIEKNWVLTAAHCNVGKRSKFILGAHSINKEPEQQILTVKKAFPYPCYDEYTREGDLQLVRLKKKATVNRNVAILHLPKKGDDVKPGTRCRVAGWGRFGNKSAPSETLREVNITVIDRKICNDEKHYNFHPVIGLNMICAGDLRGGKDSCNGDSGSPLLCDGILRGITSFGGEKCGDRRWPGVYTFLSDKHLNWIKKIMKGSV
Protocol: (§1) Inactivation rates of serine proteases by substituted isocoumarins were measured by the incubation method. An aliquot of inhibitor (25 or 50 μl) in Me2 SO was added to a buffered enzyme solution (0.01-2.3 μM) to initiate the inactivation. Aliquots (50 μl) were withdrawn at various intervals and the residual enzymatic activity was measured. Me2 SO concentration in the reaction mixture was 8-12% (v/v). 0.1 Hepes, 0.01M CaCl2, pH 7.5 buffer was utilized for trypsin and coagulation enzymes. 0.1M Hepes, 0.5M NaCl, pH 7.5 was utilized for other serine proteases. The inhibitor concentrations are shown in all the tables. Peptide thioesters or peptide nitroanilides with appropriate sequence were used as substrates for various serine proteases. All peptide thioester hydrolysis rates were measured with assay mixtures containing 4,4'-dithiodipyridine (ε324 =19800M^-1 cm^-1; Grasetti & Murray, Arch. Biochem. Biophys. 119, pp 41-49 (1967)). Peptide 4-nitroanilide nitroanilide hydrolysis was measured at 410 nm (ε410 =8800M^-1 cm^-1; Erlanger et al., Arch. Biochem. Biophys. 95, pp 271-278 (1961)). First order inactivation rate constant (kobs) were obtained from plots of ln (vt /vo) vs time, and the correlation coefficients were greater than 0.98.
^a Inactivation rates were measured at 0.1M Hepes, 0.01M CaCl2,
pH 7.5, 8% Me2 SO and 25° C. by incubation method. ZArg-SBzl
(74-85 μM) was used as the substrate to monitor the residual enzymatic

[2] = biological target: T2, Cl^- s (Homo sapiens, UniProt P09871); assay: Inactivation rate of complement protein C1s; details: Table II; pH 7.5, 25° C; [I] 0.8 to 44 μM; read-out: kobs/[I]
T2 construct: Cl^- s^e
T2 sequence (P09871 438-688 limits assumed): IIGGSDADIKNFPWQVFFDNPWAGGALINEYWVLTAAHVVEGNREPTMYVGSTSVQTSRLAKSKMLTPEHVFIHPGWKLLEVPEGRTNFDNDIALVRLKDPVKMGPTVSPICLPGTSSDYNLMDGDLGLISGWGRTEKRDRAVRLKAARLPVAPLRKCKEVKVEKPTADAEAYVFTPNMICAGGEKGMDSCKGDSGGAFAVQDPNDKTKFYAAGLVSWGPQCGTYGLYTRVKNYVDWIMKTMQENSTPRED
T2 sequence (P09871 16-437 partner limits assumed): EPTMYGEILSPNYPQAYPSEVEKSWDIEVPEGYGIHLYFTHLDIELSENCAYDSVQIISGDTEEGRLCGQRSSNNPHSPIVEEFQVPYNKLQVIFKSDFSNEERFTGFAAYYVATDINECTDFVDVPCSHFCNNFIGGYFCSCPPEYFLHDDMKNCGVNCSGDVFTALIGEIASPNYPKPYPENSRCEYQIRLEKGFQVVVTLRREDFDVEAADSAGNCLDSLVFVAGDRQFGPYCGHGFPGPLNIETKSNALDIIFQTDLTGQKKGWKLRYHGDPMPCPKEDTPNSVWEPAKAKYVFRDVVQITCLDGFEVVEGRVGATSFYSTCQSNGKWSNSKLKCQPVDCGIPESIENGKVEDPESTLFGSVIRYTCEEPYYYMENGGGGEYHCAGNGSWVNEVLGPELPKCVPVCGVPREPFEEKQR
Protocol: as §1
^a Conditions were 0.1M Hepes, 0.5M NaCl, pH 7.5, 8-10% Me2 SO
and 25° C. Inactivation rates were measured by incubation method.
Enzyme concentrations were as follows: protein D, 1-9 μM; C2, 0.7-1
μM; B, 1.8 μM; Bb, 0.3-0.8 μM; Cl^- s, 0.07 μM; Cl^-

[3] = biological target: T3, human plasma kallikrein (Homo sapiens, UniProt P03952); assay: Inactivation rate of human plasma kallikrein; details: Table I, read-out: kobs/[I]
T3 construct: human plasma kallikrein; from tissue; host or cells: human plasma (from the name)
Protocol: as §1
^a Conditions were as 0.1M Hepes, 0.01M CaCl2, pH 7.5 and 8-12%
Me2 SO and 25° C. Rate constants were measured by incubation
method unless otherwise noted. An aliquot of inhibitor was added to an
enzyme solution and aliquots removed with time and assayed for remaining
enzymatic activity. Firstorder rate constants, kobs were obtained
from the plots of ln(vt /vo) versus time.

[4] = biological target: T4, human leukocyte elastase (HLE) (Homo sapiens, UniProt P08246); assay: Inactivation of human leukocyte elastase (HLE)
T4 construct: from tissue; host or cells: human leukocytes (from the name)
T4 sequence (P08246 30-267): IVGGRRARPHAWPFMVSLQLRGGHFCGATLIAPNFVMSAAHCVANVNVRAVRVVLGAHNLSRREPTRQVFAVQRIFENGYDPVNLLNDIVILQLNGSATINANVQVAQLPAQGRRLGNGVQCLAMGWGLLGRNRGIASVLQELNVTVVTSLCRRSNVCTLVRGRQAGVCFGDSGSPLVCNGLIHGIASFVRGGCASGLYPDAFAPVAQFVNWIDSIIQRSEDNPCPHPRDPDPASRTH
Protocol: Inactivation rates of serine proteases by substituted isocoumarins were measured by the incubation method. An aliquot of inhibitor (25 or 50 μl) in Me2 SO was added to a buffered enzyme solution (0.01-2.3 μM) to initiate the inactivation. Aliquots (50 μl) were withdrawn at various intervals and the residual enzymatic activity was measured. Me2 SO concentration in the reaction mixture was 8-12% (v/v). 0.1 Hepes, 0.01M CaCl2, pH 7.5 buffer was utilized for trypsin and coagulation enzymes. 0.1M Hepes, 0.5M NaCl, pH 7.5 was utilized for other serine proteases. […] Peptide thioesters or peptide nitroanilides with appropriate sequence were used as substrates for various serine proteases. All peptide thioester hydrolysis rates were measured with assay mixtures containing 4,4'-dithiodipyridine (ε324 =19800M^-1 cm^-1 ; Grasetti & Murray, Arch. Biochem. Biophys. 119, pp 41-49 (1967)). Peptide 4-nitroanilide nitroanilide hydrolysis was measured at 410 nm (ε410 =8800M^-1 cm^-1 ; Erlanger et al., Arch. Biochem. Biophys. 95, pp 271-278 (1961)). First order inactivation rate constant (kobs) were obtained from plots of ln (vt /vo) vs time, and the correlation coefficients were greater than 0.98.
^a Inactivation rates were measured at 0.1M Hepes, 0.5 NaCl, pH 7.5,
8-12% Me2 SO and 25° C. by incubation method.
^a Inhibition rates were measured in 0.1M Hepes, 0.05M NaCl, pH 7.5
buffer, 8-9% Me2 SO and at 25° C.
^a Inhibition constants were in 0.1M Hepes, 0.5M NaCl, pH 7.5 buffer,
8-9% Me2 SO and at 25° C.
^a Inhibition rates were measured in 0.1M Hepes, 0.5M NaCl, 2.5%
Me2 SO, pH 7,5 and at 25° C.
^a Inhibition was measured in 0.1M Hepes, 0.5M NaCl, pH 7.5 buffer,
5-10% Me2 SO and at 25° C. Suc--Val--Pro--Phe--NA (0.48 mM)
was used as the substrate for chymotrypsin and cat G.
^a Inhibition rates were measured in 0.1M Hepes, 0.5M NaCl, pH 7.5

[5] = pH 7.5, based on residual activity at 0.2 min
[6] = Table IV, pH 7.5, 25° C, [I] 0.001 to 0.18 mM, read-out: kobs/[I]
[7] = pH 7.5, 25° C, [I] 3 to 330 μM (footnote g)

T3 sequence (P03952 391-638 limits assumed): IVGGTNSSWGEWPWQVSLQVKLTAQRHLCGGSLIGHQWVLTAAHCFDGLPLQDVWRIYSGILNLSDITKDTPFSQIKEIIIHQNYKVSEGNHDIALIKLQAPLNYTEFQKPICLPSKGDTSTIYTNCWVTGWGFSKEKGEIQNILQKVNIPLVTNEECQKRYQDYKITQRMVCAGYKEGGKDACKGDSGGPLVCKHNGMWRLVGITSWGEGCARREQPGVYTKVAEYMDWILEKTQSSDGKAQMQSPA
T3 sequence (P03952 20-390 partner limits assumed): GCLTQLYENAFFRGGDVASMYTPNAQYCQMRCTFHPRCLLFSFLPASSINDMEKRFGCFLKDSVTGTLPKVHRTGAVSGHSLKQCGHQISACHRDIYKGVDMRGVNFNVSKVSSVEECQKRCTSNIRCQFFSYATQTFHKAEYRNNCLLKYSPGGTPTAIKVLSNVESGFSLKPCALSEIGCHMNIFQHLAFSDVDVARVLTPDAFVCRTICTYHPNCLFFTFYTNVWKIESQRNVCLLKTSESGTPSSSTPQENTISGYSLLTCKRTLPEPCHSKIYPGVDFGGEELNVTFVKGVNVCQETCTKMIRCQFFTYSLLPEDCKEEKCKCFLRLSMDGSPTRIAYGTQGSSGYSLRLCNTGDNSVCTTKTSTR

SMILES | kinact/KI [1] | kinact/KI [2] | kinact/KI [3, 5] | kinact/KI [4, 6] | kinact/KI [3, 7] | kinact/KI ([3]; pH 7.5, progress curve method) | kinact/KI ([4]; pH 7.5, Table X, biphasic inhibition, read-out: kobs/[I] (biphasic, first value)) | kinact/KI ([4]; pH 7.5, Table X, biphasic inhibition, read-out: kobs/[I] (biphasic, second value))
O=c1oc(Cl)c(Cl)c2ccccc12 [3,4-dichloroisocoumarin, reference compound] | 50 M⁻¹ s⁻¹ | 170 M⁻¹ s⁻¹ | – | – | – | – | – | –
N=C(N)SCCOc1oc(=O)c2ccccc2c1Cl [3-(2-isothiureidoethoxy)-4-chloroisocoumarin] | – | – | 280000 M⁻¹ s⁻¹ | 220 M⁻¹ s⁻¹ | – | – | – | –
NCCCOc1oc(=O)c2ccccc2c1Cl [3-(3-aminopropoxy)-4-chloroisocoumarin] | 770 M⁻¹ s⁻¹ | – | – | 860 M⁻¹ s⁻¹ | 1400 M⁻¹ s⁻¹ | – | – | –
N=C(N)SCCCOc1oc(=O)c2ccccc2c1Cl [3-(3-isothiureidopropoxy)-4-chloroisocoumarin] | 17500 M⁻¹ s⁻¹ | 130000 M⁻¹ s⁻¹ | > 110000 M⁻¹ s⁻¹ | 2000 M⁻¹ s⁻¹ | – | – | – | –
N=C(N)SCCCOc1oc(=O)c2cc(N)ccc2c1Cl [7-amino-4-chloro-3-(3-isothiureidopropoxy)isocoumarin] | 3000 M⁻¹ s⁻¹ | 23000 M⁻¹ s⁻¹ | – | 130 M⁻¹ s⁻¹ | 1100 M⁻¹ s⁻¹ | – | – | –
CCOc1oc(=O)c2cc(NC(=N)N)ccc2c1Cl [7-guanidino-3-ethoxy-4-chloroisocoumarin, 7-guanidino-4-chloro-3-ethoxyisocoumarin] | 26200 M⁻¹ s⁻¹ | 690 M⁻¹ s⁻¹ | > 500000 M⁻¹ s⁻¹ | 81000 M⁻¹ s⁻¹ | – | – | – | –
COc1cc2ccc(NC(=N)N)cc2c(=O)o1 [7-guanidino-3-methoxyisocoumarin] | – | – | – | 320 M⁻¹ s⁻¹ | 13000 M⁻¹ s⁻¹ | – | – | –
N=C(N)Nc1ccc2c(Cl)c(OCCc3ccccc3)oc(=O)c2c1 [7-guanidino-4-chloro-3-(2-phenylethoxy)isocoumarin] | 6400 M⁻¹ s⁻¹ | 90 M⁻¹ s⁻¹ | > 270000 M⁻¹ s⁻¹ | 73 M⁻¹ s⁻¹ | – | – | – | –
COc1oc(=O)c2cc(NC(=N)N)ccc2c1Cl [7-guanidino-4-chloro-3-methoxyisocoumarin] | 15000 M⁻¹ s⁻¹ | 660 M⁻¹ s⁻¹ | – | 6400 M⁻¹ s⁻¹ | – | 240000 M⁻¹ s⁻¹ | – | –
N=C(N)SCCOc1oc(=O)c2cc(NC(=O)Nc3ccccc3)ccc2c1Cl [PhNHCONH-CiTEtOIC, 7-(phenylcarbamoylamino)-4-chloro-3-(2-isothiureidoethoxy)isocoumarin] | – | – | – | – | – | – | 46000 M⁻¹ s⁻¹ | 5730 M⁻¹ s⁻¹

Source: US5324648A, “Substituted isocoumarins as serine protease inhibitors and anti-inflammatory agents” (Georgia Tech Research Corporation, priority 1992, dated 1994)
